Reference: US20110039721A1, “METHOD FOR PREDICTION ABOUT CARCINOGENICITY OF SUBSTANCE IN RODENT” (Chemicals Evaluation and Research Institute, priority 2007, published 2011)

Legend:
[1] = test system: rodent; conditions: classification of the substance (C+/C−); cited from earlier work
[2] = classification of the substance (M+/M−); cited from earlier work
[3] = test system: mRNA expressed from the genes (A) to (D) in rat liver; assay: Behavior of genes (mRNA expression level, oligo-DNA microarray) in rat liver after 28-day oral administration; assay type: in vivo; conditions: for Behavior of gene caused by administration of chemical substance, Gene No. 4846 / Behavior of gene caused by administration of chemical substance, Gene No. 2026 / Behavior of gene caused by administration of chemical substance, Gene No. 4218 / Behavior of gene caused by administration of chemical substance, Gene No. 6182 / Behavior of gene caused by administration of chemical substance, Gene No. 5600: gene group (A); for Behavior of gene caused by administration of chemical substance, Gene No. 4846: Unigene No. Rn.144554; for Behavior of gene caused by administration of chemical substance, Gene No. 2026 / Behavior of gene caused by administration of chemical substance, Gene No. 4218: Unigene No. Rn.167075; for Behavior of gene caused by administration of chemical substance, Gene No. 6182: Unigene No. Rn.5834; for Behavior of gene caused by administration of chemical substance, Gene No. 5600: Unigene No. Rn.9836; for Behavior of gene caused by administration of chemical substance, Gene No. 1494 / Behavior of gene caused by administration of chemical substance, Gene No. 2045 / Behavior of gene caused by administration of chemical substance, Gene No. 2203: gene group (B); for Behavior of gene caused by administration of chemical substance, Gene No. 1494: Unigene No. Rn.1430; for Behavior of gene caused by administration of chemical substance, Gene No. 2045: Unigene No. Rn.19329; for Behavior of gene caused by administration of chemical substance, Gene No. 2203: Unigene No. Rn.21240; for Behavior of gene caused by administration of chemical substance, Gene No. 533 / Behavior of gene caused by administration of chemical substance, Gene No. 725 / Behavior of gene caused by administration of chemical substance, Gene No. 1163 / Behavior of gene caused by administration of chemical substance, Gene No. 4973 / Behavior of gene caused by administration of chemical substance, Gene No. 4095 / Behavior of gene caused by administration of chemical substance, Gene No. 1334 / Behavior of gene caused by administration of chemical substance, Gene No. 6620 / Behavior of gene caused by administration of chemical substance, Gene No. 6303 / Behavior of gene caused by administration of chemical substance, Gene No. 5878 / Behavior of gene caused by administration of chemical substance, Gene No. 1131 / Behavior of gene caused by administration of chemical substance, Gene No. 1562 / Behavior of gene caused by administration of chemical substance, Gene No. 1741 / Behavior of gene caused by administration of chemical substance, Gene No. 893 / Behavior of gene caused by administration of chemical substance, Gene No. 6026 / Behavior of gene caused by administration of chemical substance, Gene No. 154 / Behavior of gene caused by administration of chemical substance, Gene No. 1993 / Behavior of gene caused by administration of chemical substance, Gene No. 813 / Behavior of gene caused by administration of chemical substance, Gene No. 2494 / Behavior of gene caused by administration of chemical substance, Gene No. 2546 / Behavior of gene caused by administration of chemical substance, Gene No. 3776 / Behavior of gene caused by administration of chemical substance, Gene No. 3929 / Behavior of gene caused by administration of chemical substance, Gene No. 1119 / Behavior of gene caused by administration of chemical substance, Gene No. 6742 / Behavior of gene caused by administration of chemical substance, Gene No. 5634: gene group (C); for Behavior of gene caused by administration of chemical substance, Gene No. 533: Unigene No. Rn.106184; for Behavior of gene caused by administration of chemical substance, Gene No. 725: Unigene No. Rn.108075; for Behavior of gene caused by administration of chemical substance, Gene No. 1163: Unigene No. Rn.11766; for Behavior of gene caused by administration of chemical substance, Gene No. 4973: Unigene No. Rn.118529; for Behavior of gene caused by administration of chemical substance, Gene No. 4095: Unigene No. Rn.119024; for Behavior of gene caused by administration of chemical substance, Gene No. 1334 / Behavior of gene caused by administration of chemical substance, Gene No. 6620: Unigene No. Rn.120914; for Behavior of gene caused by administration of chemical substance, Gene No. 6303: Unigene No. Rn.123063; for Behavior of gene caused by administration of chemical substance, Gene No. 5878: Unigene No. Rn.143213; for Behavior of gene caused by administration of chemical substance, Gene No. 1131: Unigene No. Rn.144946; for Behavior of gene caused by administration of chemical substance, Gene No. 1562: Unigene No. Rn.14744; for Behavior of gene caused by administration of chemical substance, Gene No. 1741: Unigene No. Rn.1647; for Behavior of gene caused by administration of chemical substance, Gene No. 893: Unigene No. Rn.164817; for Behavior of gene caused by administration of chemical substance, Gene No. 6026: Unigene No. Rn.167685; for Behavior of gene caused by administration of chemical substance, Gene No. 154: Unigene No. Rn.185941; for Behavior of gene caused by administration of chemical substance, Gene No. 1993: Unigene No. Rn.18728; for Behavior of gene caused by administration of chemical substance, Gene No. 813: Unigene No. Rn.201760; for Behavior of gene caused by administration of chemical substance, Gene No. 2494: Unigene No. Rn.23969; for Behavior of gene caused by administration of chemical substance, Gene No. 2546: Unigene No. Rn.24561; for Behavior of gene caused by administration of chemical substance, Gene No. 3776: Unigene No. Rn.43232; for Behavior of gene caused by administration of chemical substance, Gene No. 3929: Unigene No. Rn.4620; for Behavior of gene caused by administration of chemical substance, Gene No. 1119: Unigene No. Rn.9757; for Behavior of gene caused by administration of chemical substance, Gene No. 6742: Unigene No. Rn.9779; for Behavior of gene caused by administration of chemical substance, Gene No. 5634: Unigene No. Rn.9862; for Behavior of gene caused by administration of chemical substance, Gene No. 5726: gene group (D), Unigene No. Rn.9939
How it was run: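 Oral gavage, once daily × 28 days; male F344 SPF rats, 5 wk, n=4/group; vehicle controls given equal solvent volume. Liver excised day 28, total RNA purified. Significance: ≥1.5× or ≤1/1.5 of vehicle, direction concordant with other carcinogens.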

[4] = test system: liver; conditions: classification of the substance (Cr+/Cr−); cited from earlier work

CC/C(=C(/CC)c1ccc(O)cc1)c1ccc(O)cc1 [TS068, Diethylstilbestrol]
Carcinogenicity [1]: C+
Mutagenicity by Ames test [2]: M−
Behavior of gene caused by administration of chemical substance, Gene No. 4846 ([3]; mRNA vs vehicle control group): +
Behavior of gene caused by administration of chemical substance, Gene No. 2026 ([3]; mRNA vs vehicle control group): −
Behavior of gene caused by administration of chemical substance, Gene No. 4218 ([3]; mRNA vs vehicle control group): +
Behavior of gene caused by administration of chemical substance, Gene No. 6182 ([3]; mRNA vs vehicle control group): +
Behavior of gene caused by administration of chemical substance, Gene No. 5600 ([3]; mRNA vs vehicle control group): +
Behavior of gene caused by administration of chemical substance, Gene No. 1494 ([3]; mRNA vs vehicle control group): −
Behavior of gene caused by administration of chemical substance, Gene No. 2045 ([3]; mRNA vs vehicle control group): −
Behavior of gene caused by administration of chemical substance, Gene No. 2203 ([3]; mRNA vs vehicle control group): −
Behavior of gene caused by administration of chemical substance, Gene No. 533 ([3]; mRNA vs vehicle control group): +
Behavior of gene caused by administration of chemical substance, Gene No. 725 ([3]; mRNA vs vehicle control group): +
Behavior of gene caused by administration of chemical substance, Gene No. 1163 ([3]; mRNA vs vehicle control group): +
Behavior of gene caused by administration of chemical substance, Gene No. 4973 ([3]; mRNA vs vehicle control group): +
Behavior of gene caused by administration of chemical substance, Gene No. 4095 ([3]; mRNA vs vehicle control group): +
Behavior of gene caused by administration of chemical substance, Gene No. 1334 ([3]; mRNA vs vehicle control group): +
Behavior of gene caused by administration of chemical substance, Gene No. 6620 ([3]; mRNA vs vehicle control group): +
Behavior of gene caused by administration of chemical substance, Gene No. 6303 ([3]; mRNA vs vehicle control group): +
Behavior of gene caused by administration of chemical substance, Gene No. 5878 ([3]; mRNA vs vehicle control group): +
Behavior of gene caused by administration of chemical substance, Gene No. 1131 ([3]; mRNA vs vehicle control group): +
Behavior of gene caused by administration of chemical substance, Gene No. 1562 ([3]; mRNA vs vehicle control group): +
Behavior of gene caused by administration of chemical substance, Gene No. 1741 ([3]; mRNA vs vehicle control group): +
Behavior of gene caused by administration of chemical substance, Gene No. 893 ([3]; mRNA vs vehicle control group): +
Behavior of gene caused by administration of chemical substance, Gene No. 6026 ([3]; mRNA vs vehicle control group): +
Behavior of gene caused by administration of chemical substance, Gene No. 154 ([3]; mRNA vs vehicle control group): +
Behavior of gene caused by administration of chemical substance, Gene No. 1993 ([3]; mRNA vs vehicle control group): +
Behavior of gene caused by administration of chemical substance, Gene No. 813 ([3]; mRNA vs vehicle control group): +
Behavior of gene caused by administration of chemical substance, Gene No. 2494 ([3]; mRNA vs vehicle control group): +
Behavior of gene caused by administration of chemical substance, Gene No. 2546 ([3]; mRNA vs vehicle control group): +
Behavior of gene caused by administration of chemical substance, Gene No. 3776 ([3]; mRNA vs vehicle control group): +
Behavior of gene caused by administration of chemical substance, Gene No. 3929 ([3]; mRNA vs vehicle control group): +
Behavior of gene caused by administration of chemical substance, Gene No. 1119 ([3]; mRNA vs vehicle control group): +
Behavior of gene caused by administration of chemical substance, Gene No. 6742 ([3]; mRNA vs vehicle control group): +
Behavior of gene caused by administration of chemical substance, Gene No. 5634 ([3]; mRNA vs vehicle control group): +
Behavior of gene caused by administration of chemical substance, Gene No. 5726 ([3]; mRNA vs vehicle control group): −
Liver carcinogenicity [4]: Cr−

CC(=O)Oc1ccccc1C(=O)O [TS071, Aspirin]
Carcinogenicity [1]: C−
Mutagenicity by Ames test [2]: M−
Behavior of gene caused by administration of chemical substance, Gene No. 4846 [3]: −
Behavior of gene caused by administration of chemical substance, Gene No. 2026 [3]: −
Behavior of gene caused by administration of chemical substance, Gene No. 4218 [3]: −
Behavior of gene caused by administration of chemical substance, Gene No. 6182 [3]: −
Behavior of gene caused by administration of chemical substance, Gene No. 5600 [3]: −
Behavior of gene caused by administration of chemical substance, Gene No. 1494 [3]: −
Behavior of gene caused by administration of chemical substance, Gene No. 2045 [3]: −
Behavior of gene caused by administration of chemical substance, Gene No. 2203 [3]: −
Behavior of gene caused by administration of chemical substance, Gene No. 533 [3]: −
Behavior of gene caused by administration of chemical substance, Gene No. 725 [3]: −
Behavior of gene caused by administration of chemical substance, Gene No. 1163 [3]: −
Behavior of gene caused by administration of chemical substance, Gene No. 4973 [3]: −
Behavior of gene caused by administration of chemical substance, Gene No. 4095 [3]: −
Behavior of gene caused by administration of chemical substance, Gene No. 1334 [3]: −
Behavior of gene caused by administration of chemical substance, Gene No. 6620 [3]: −
Behavior of gene caused by administration of chemical substance, Gene No. 6303 [3]: −
Behavior of gene caused by administration of chemical substance, Gene No. 5878 [3]: −
Behavior of gene caused by administration of chemical substance, Gene No. 1131 [3]: +
Behavior of gene caused by administration of chemical substance, Gene No. 1562 [3]: −
Behavior of gene caused by administration of chemical substance, Gene No. 1741 [3]: −
Behavior of gene caused by administration of chemical substance, Gene No. 893 [3]: −
Behavior of gene caused by administration of chemical substance, Gene No. 6026 [3]: −
Behavior of gene caused by administration of chemical substance, Gene No. 154 [3]: −
Behavior of gene caused by administration of chemical substance, Gene No. 1993 [3]: −
Behavior of gene caused by administration of chemical substance, Gene No. 813 [3]: −
Behavior of gene caused by administration of chemical substance, Gene No. 2494 [3]: −
Behavior of gene caused by administration of chemical substance, Gene No. 2546 [3]: −
Behavior of gene caused by administration of chemical substance, Gene No. 3776 [3]: −
Behavior of gene caused by administration of chemical substance, Gene No. 3929 [3]: −
Behavior of gene caused by administration of chemical substance, Gene No. 1119 [3]: −
Behavior of gene caused by administration of chemical substance, Gene No. 6742 [3]: −
Behavior of gene caused by administration of chemical substance, Gene No. 5634 [3]: −
Behavior of gene caused by administration of chemical substance, Gene No. 5726 [3]: −
Liver carcinogenicity [4]: Cr−
